Values of other authors in patent US9687445B2, “Oral film containing opiate enteric-release beads” (LTS Lohmann Therapie-Systeme AG, priority 2012, dated 2017).

## C=CCN1CC[C@]23c4c5ccc(O)c4O[C@H]2C(=O)CC[C@@]3(O)[C@H]1C5 [naloxone]
  pKa: about 7.94
